target: GLP-1R (Homo sapiens, UniProt P43220); assay: GLP-1R agonist cAMP stimulation assay (HTRF cAMP); assay type: cell-based; conditions: HEK293 cell line expressing GLP-1 target; HTRF cAMP agonist mode, 30 min at RT
How it was run: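 GLP-1R-expressing cells were stimulated with 10-point, 3-fold compound dilutions for 30 min at RT; HTRF cAMP detection reagents were then added for 60 min and the 665/615 ratio read. Ratios were converted to cAMP via a standard curve and % activity scaled between DMSO and top-concentration GLP-1(7-37) reference wells.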

Sequence of GLP-1R (P43220 24-463): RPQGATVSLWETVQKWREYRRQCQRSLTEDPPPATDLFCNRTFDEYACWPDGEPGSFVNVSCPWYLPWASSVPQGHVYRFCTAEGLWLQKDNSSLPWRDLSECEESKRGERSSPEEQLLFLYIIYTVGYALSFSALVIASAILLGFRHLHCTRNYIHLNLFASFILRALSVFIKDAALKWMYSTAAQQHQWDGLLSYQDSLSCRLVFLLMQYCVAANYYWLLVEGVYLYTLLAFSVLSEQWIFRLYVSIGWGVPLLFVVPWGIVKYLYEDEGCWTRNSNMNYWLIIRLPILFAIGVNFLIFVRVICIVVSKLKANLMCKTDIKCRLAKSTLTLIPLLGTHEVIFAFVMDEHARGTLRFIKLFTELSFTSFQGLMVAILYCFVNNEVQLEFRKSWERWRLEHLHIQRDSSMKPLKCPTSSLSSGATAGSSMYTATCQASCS

In order of falling EC50:
1. COCCn1c(Cc2ccc(-c3cccc(OCc4ccc(C#N)cc4F)n3)cc2)nc2cc(C(=O)NCCc3ccc(C(=O)NCCc4ccc(C(=O)O)cc4)cc3)ccc21 [Compound 10]  993 nM
2. COCCn1c(CN2CCC(c3cccc(OCc4ccc(Cl)cc4F)n3)CC2)nc2cc(C(=O)NCCc3ccccc3O)ccc21 [Compound 18]  411 nM
3. COCCn1c(CN2CCC(c3cccc(OCc4ccc(Cl)cc4F)n3)CC2)nc2cc(C(=O)NC3Cc4cc(C)c(O)cc4C3)ccc21 (centres unmarked) [Compound 43]  256 nM
4. COCCn1c(CN2CCC(c3cccc(OCc4ccc(Cl)cc4F)n3)CC2)nc2cc(C(=O)NCCc3cccc(O)c3)ccc21 [Compound 19]  176 nM
5. Fc1cc(Cl)ccc1COc1cccc(C2=CCN(Cc3nc4cc(-n5cnc(-c6ccn[nH]6)c5)ccc4n3C[C@@H]3CCO3)CC2)n1 [Compound 396]  146 nM
6. COC(=O)[C@@H]1CC(F)(F)CN1C(=O)[C@H](C)NC(=O)c1ccc2c(c1)nc(CN1CCC(c3cccc(OCc4ccc(Cl)cc4F)n3)CC1)n2C[C@@H]1CCO1 [Compound 68]  142 nM
7. COCCn1c(CN2CCC(c3cccc(OCc4ccc(Cl)cc4F)n3)CC2)nc2cc(C(=O)NCc3ccc(NC(C)=O)cc3)ccc21 [Compound 27]  129 nM
8. O=C(NCC(=O)N1CC[C@H](C(=O)O)C1)c1ccc2c(c1)nc(CN1CCC(c3cccc(OCc4ccc(Cl)cc4F)n3)CC1)n2C[C@@H]1CCO1 [Compound 54]  79.7 nM
9. Cc1n[nH]c2ncc(NC(=O)c3ccc4c(c3)nc(CN3CCC(c5cccc(OCc6ccc(Cl)cc6F)n5)CC3)n4C[C@@H]3CCO3)cc12 [Compound 79]  76.5 nM
10. O=C(NCCc1ccc(O)cc1)c1ccc2c(c1)nc(CN1CCC(c3cccc(OCc4ccc(Cl)cc4F)n3)CC1)n2C[C@@H]1CCO1 [Compound 15]  25.6 nM
11. O=C(Nc1ncc2[nH]cnc2n1)c1ccc2c(c1)nc(CN1CC=C(c3cccc(OCc4ccc(Cl)cc4F)n3)CC1)n2C[C@@H]1CCO1 [Compound 144]  23.4 nM
12. O=C(Nc1nc2[nH]cnc2s1)c1ccc2c(c1)nc(CN1CC=C(c3cccc(OCc4ccc(Cl)cc4F)n3)CC1)n2C[C@@H]1CCO1 [Compound 403]  23.2 nM
13. COCCn1c(CN2CCC(c3cccc(OCc4ccc(Cl)cc4F)n3)CC2)nc2cc(C(=O)NCc3ccc4[nH]c(=O)[nH]c4c3)ccc21 [Compound 38]  17.7 nM
14. NC(=O)C[C@H](NC(=O)c1ccc2c(c1)nc(CN1CCC(c3cccc(OCc4ccc(Cl)cc4F)n3)CC1)n2CC1CCO1)C(=O)O (some centres unmarked) [Compound 52]  12.8 nM
15. Cc1n[nH]c2cnc(NC(=O)c3ccc4c(c3)nc(CN3CC=C(c5cccc(OCc6ccc(Cl)cc6F)n5)CC3)n4C[C@@H]3CCO3)nc12 [Compound 168]  10.5 nM
16. O=C(Nc1ccc2nc(CN3CC=C(c4cccc(OCc5ccc(Cl)cc5F)n4)CC3)n(C[C@@H]3CCO3)c2c1)c1cc(F)c2[nH]ncc2c1 [Compound 283]  10.2 nM
17. O=C(Nc1ccc2nc(CN3CC=C(c4cccc(OCc5ccc(Cl)cc5F)n4)CC3)n(CC3CCO3)c2c1)c1ccc2[nH]nc(Cl)c2c1 (centres unmarked) [Compound 284]  9.85 nM
18. Cc1n[nH]c2ncc(NC(=O)c3ccc4c(c3)nc(CN3CC=C(c5cccc(OCc6ccc(Cl)cc6F)n5)CC3)n4C[C@@H]3CCO3)nc12 [Compound 190]  9.27 nM
19. O=C(Nc1ccc2[nH]nc(C3CC3)c2c1)c1ccc2c(c1)nc(CN1CCC(c3cccc(OCc4ccc(Cl)cc4F)n3)CC1)n2C[C@@H]1CCO1 [Compound 112]  6.18 nM
20. O=C(Nc1ccc2ncsc2c1)c1ccc2c(c1)nc(CN1CC=C(c3cccc(OCc4ccc(Cl)cc4F)n3)CC1)n2C[C@@H]1CCO1 [Compound 150]  5.78 nM
21. Cc1n[nH]c2c(C)cc(NC(=O)c3ccc4nc(CN5CC=C(c6cccc(OCc7ccc(Cl)cc7F)n6)CC5)n(CC5CCO5)c4c3)cc12 (centres unmarked) [Compound 264]  4.22 nM
22. Cc1n[nH]c2c(F)cc(NC(=O)c3ccc4c(c3)nc(CN3CC=C(c5cccc(OCc6ccc(C#N)c7c6ncn7C)n5)CC3)n4C[C@@H]3CCO3)cc12 [Compound 367]  3.92 nM
23. Cc1n[nH]c2ccc(C(=O)Nc3ccc4c(c3)nc(CN3CC=C(c5cccc(OCc6ccc(Cl)cc6F)n5)CC3)n4C[C@@H]3CCO3)c(F)c12 [Compound 224]  3.29 nM
24. Cc1n[nH]c2c(C(F)(F)F)cc(NC(=O)c3ccc4nc(CN5CC=C(c6cccc(OCc7ccc(Cl)cc7F)n6)CC5)n(CC5CCO5)c4c3)cc12 (centres unmarked) [Compound 272]  3.21 nM
25. Cc1n[nH]c2ccc(NC(=O)c3ccc4c(c3)nc(CN3CCC(c5cccc(OCc6ccc(Cl)cc6F)n5)CC3)n4C[C@@H]3CCO3)c(F)c12 [Compound 122]  3.21 nM
26. Cc1n[nH]c2ccc(C(=O)Nc3ccc4nc(CN5CC=C(c6cccc(OCc7ccc(Cl)cc7F)n6)CC5)n(CC5CCO5)c4c3)cc12 (centres unmarked) [Compound 278]  3.18 nM
27. Cc1n[nH]c2c(Cl)cc(C(=O)Nc3ccc4c(c3)nc(CN3CC=C(c5cccc6c5OC(C)(c5ccc(Cl)cc5F)O6)CC3)n4CC3CCO3)cc12 (centres unmarked) [Compound 308]  3.12 nM
28. CC(C)c1n[nH]c2ccc(C(=O)Nc3ccc4c(c3)nc(C3CC35CCC(c3cccc(OCc6ccc(Cl)cc6F)n3)CC5)n4CC3CCO3)cc12 (centres unmarked) [Compound 251]  2.22 nM
29. O=C(Nc1cc(C(F)(F)F)c2c(c1)C1(CC1)C(=O)N2)c1ccc2c(c1)nc(CN1CCC(c3cccc(OCc4ccc(Cl)cc4F)n3)CC1)n2C[C@@H]1CCO1 [Compound 107]  1.83 nM
30. C[C@]12C[C@@H](C(=O)O)N(C(=O)CNC(=O)c3ccc4c(c3)nc(CN3CCC(c5cccc(OCc6ccc(Cl)cc6F)n5)CC3)n4C[C@@H]3CCO3)[C@@]1(C)C2 [Compound 55]  1.83 nM
31. Cc1n[nH]c2c(F)cc(NC(=O)c3ccc4nc(CN5CC=C(c6cccc(OCc7ccc(C#N)cc7F)n6)CC5)n(CC5CCO5)c4c3)cc12 (centres unmarked) [Compound 274]  1.65 nM
32. Cc1cc(NC(=O)c2ccc3c(c2)nc(CN2CCC(c4cccc5c4OC(C)(c4ccc(Cl)cc4F)O5)CC2)n3CC2CCO2)cc2c(C(F)(F)F)n[nH]c12 (centres unmarked) [Compound 332]  1.58 nM
33. Cc1cc(NC(=O)c2ccc3c(c2)nc(CN2CC=C(c4cccc(OCc5ccc(Cl)cc5F)n4)CC2)n3C[C@@H]2CCO2)c(F)c2c(C)n[nH]c12 [Compound 175]  1.23 nM
34. O=C(Nc1ccc2nc(CN3CC=C(c4cccc(OCc5ccc(Cl)cc5F)n4)CC3)n(C[C@@H]3CCO3)c2c1)c1ccc2c(c1)C1(CC1)C(=O)N2 [Compound 281]  1.21 nM
35. Cc1n[nH]c2c(C(F)(F)F)cc(C(=O)Nc3ccc4c(c3)nc(Cc3ccc(-c5cccc6c5OC(C)(c5ccc(C#N)cc5F)O6)cc3F)n4C[C@@H]3CCO3)cc12 (some centres unmarked) [Compound 325]  1.05 nM
36. Cc1cc(C(=O)Nc2ccc3c(c2)nc(CN2CC=C(c4cccc(OCc5ccc(C#N)cc5F)n4)CC2)n3C[C@@H]2CCO2)cc2cn[nH]c12 [Compound 236]  1.04 nM
37. Cc1n[nH]c2c(Cl)cc(NC(=O)c3ccc4c(c3)nc(CN3CC=C(c5cccc(OCc6ccc(Cl)cc6F)n5)CC3)n4C[C@@H]3CCO3)cc12 [Compound 160]  0.98 nM
38. CC1(c2ccc(C#N)cc2F)Oc2cccc(C3CCN(Cc4nc5cc(NC(=O)c6ccc7[nH]nc(C8CC8)c7c6)ccc5n4CC4CCO4)CC3)c2O1 (centres unmarked) [Compound 348]  0.91 nM
39. CCc1n[nH]c2ccc(C(=O)Nc3ccc4c(c3)nc(CN3CC=C(c5cccc(OCc6ccc(C#N)cc6F)n5)CC3)n4C[C@@H]3CCO3)cc12 [Compound 231]  0.87 nM
40. Cc1n[nH]c2c(F)cc(C(=O)Nc3ccc4c(c3)nc(CN3CC=C(c5cccc(OCc6cc(F)c(C#N)s6)n5)CC3)n4C[C@@H]3CCO3)cc12 [Compound 362]  0.85 nM
41. O=C(Nc1ccc2c(c1)C1(CC1)C(=O)N2)c1ccc2c(c1)nc(CN1CCC(c3cccc(OCc4ccc(Cl)cc4F)n3)CC1)n2C[C@@H]1CCO1 [Compound 86]  0.75 nM
42. Cc1cc(NC(=O)c2ccc3c(c2)nc(CN2CC=C(c4cccc(OCc5ccc(Cl)cc5F)n4)CC2)n3C[C@@H]2CCO2)cc2nn[nH]c12 [Compound 167]  0.68 nM
43. Cc1n[nH]c2ccc(C(=O)Nc3ccc4c(c3)nc(CN3CC=C(c5cccc6c5OC(C)(c5ccc(Cl)cc5F)O6)CC3)n4CC3CCO3)cc12 (centres unmarked) [Compound 306]  0.56 nM
44. Cc1n[nH]c2c(F)cc(C(=O)Nc3ccc4c(c3)nc(Cc3c(F)cc(-c5cccc6c5OC(C)(c5ccc(C#N)cc5F)O6)cc3F)n4CC3CCO3)cc12 (centres unmarked) [Compound 316]  0.54 nM
45. COC(=O)[C@@H]1C[C@H](O)CN1C(=O)CNC(=O)c1ccc2c(c1)nc(CN1CCC(c3cccc(OCc4ccc(Cl)cc4F)n3)CC1)n2C[C@@H]1CCO1 [Compound 63]  0.49 nM
46. C=C(C)c1n[nH]c2ccc(C(=O)Nc3ccc4c(c3)nc(C3CC35CCN(c3cccc(OCc6ccc(Cl)cc6F)n3)CC5)n4CC3CCO3)cc12 (centres unmarked) [Compound 243]  0.48 nM
47. O=C(Nc1ccc2nc(CN3CC=C(c4cccc(OCc5ccc(Cl)cc5F)n4)CC3)n(C[C@@H]3CCO3)c2c1)c1ccc2[nH]c(=O)[nH]c2c1 [Compound 285]  0.42 nM
48. Cc1n[nH]c2c(C(F)(F)F)cc(C(=O)Nc3ccc4c(c3)nc(CN3CC=C(c5cccc(OCc6ccc(Cl)cc6F)n5)CC3)n4C[C@@H]3CCO3)cc12 [Compound 210]  0.39 nM
49. Cc1cc(NC(=O)c2ccc3c(c2)nc(CN2CCC(c4cccc5c4OC(C)(c4ccc(Cl)cc4F)O5)CC2)n3C[C@@H]2CCO2)cc2[nH]c(=O)[nH]c12 (some centres unmarked) [Compound 339]  0.39 nM
50. Cc1n[nH]c2c(C)cc(NC(=O)c3ccc4c(c3)nc(CN3CC=C(c5cccc(OCc6cc(F)c(C#N)s6)n5)CC3)n4C[C@@H]3CCO3)cc12 [Compound 364]  0.38 nM
51. Cc1n[nH]c2c(F)cc(C(=O)Nc3ccc4c(c3)nc(C(F)(F)N3CC=C(c5cccc(OCc6ccc(Cl)cc6F)n5)CC3)n4C[C@@H]3CCO3)cc12 [Compound 255]  0.32 nM
52. N#Cc1ccc(COc2cccc(C3=CCN(Cc4nc5cc(NC(=O)c6cc(F)c7c(c6)C6(CC6)C(=O)N7)ccc5n4C[C@@H]4CCO4)CC3)n2)c(F)c1 [Compound 227]  0.22 nM
53. O=C(Nc1ccc2[nH]nnc2c1)c1ccc2c(c1)nc(CN1CCC(c3cccc(OCc4ccc(Cl)cc4F)n3)CC1)n2C[C@@H]1CCO1 [Compound 193]  0.21 nM
